The structures appear in SMILES notation.

The record followed here is patent US20240180889A1, “COMBINATION THERAPY FOR COVID-19 VACCINATION” (priority 2021, published 2024).

The test system of experiment [1] is MCF-7 cells. It is filed as cell-based.
The subject of experiment [2] is Tartrate Resistant Acid Phosphatase (TRAP) activity in RAW-OC cells. It is filed as cell-based, mouse.
The subject of experiment [3] is MDA-MB-231 cells. The class given is cell-based, human.

Turning to `O=C(c1ccc(OCCN2CCCCC2)cc1)c1c(-c2ccc(O)cc2)sc2cc(O)ccc12` [Raloxifene, raloxifene], the “effect on proliferation promoting activity of 17β-estradiol and spike” value in experiment [1] is reported as “blocked”. For the same compound, in experiment [2], the “effect on the estradiol- or spike-induced decrease in TRAP activity” value is recorded as “blocked”.

As to `C[C@]12CC[C@@H]3c4ccc(O)cc4CC[C@H]3[C@@H]1CC[C@@H]2O` [17β-estradiol], the “cell proliferation (BrdU)” value in experiment [3] is listed as “do not significantly affect cell proliferation”. In addition, the “activity of TRAP” value in experiment [2] is “superimposable decrease”.
